Results as given in PubChem BioAssay (NCI).
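Cells were grown in 96-well plates and exposed to each compound for 48 hours at five concentrations; endpoints were interpolated linearly between bracketing concentrations, or set to the highest concentration if not reached. Here, GI50 denotes the concentration required for 50% inhibition of growth. TGI: concentration producing complete growth inhibition.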

Key:
Test in all cases: NCI tumour cell line growth inhibition, 48 h
[1] = test system: SR leukemia
[2] = test system: U251 CNS
[3] = test system: SK-MEL-2 melanoma
[4] = test system: NCI-H226 lung
[5] = test system: SF-295 CNS
[6] = test system: TK-10 renal
[7] = test system: BT-549 breast
[8] = test system: SF-268 CNS
[9] = test system: CCRF-CEM leukemia
[10] = test system: SK-OV-3 ovarian
[11] = test system: KM12 colon
[12] = test system: UO-31 renal
[13] = test system: T-47D breast
[14] = test system: NCI-H522 lung
[15] = test system: SW-620 colon
[16] = test system: OVCAR-3 ovarian
[17] = test system: LOX IMVI melanoma
[18] = test system: SN12C renal
[19] = test system: MCF7 breast
[20] = test system: CAKI-1 renal
[21] = test system: SK-MEL-5 melanoma
[22] = test system: HCT-15 colon
[23] = test system: M14 melanoma
[24] = test system: K-562 leukemia
[25] = test system: MDA-MB-231 breast
[26] = test system: NCI/ADR-RES ovarian
[27] = test system: NCI-H23 lung
[28] = test system: MDA-MB-435
[29] = test system: EKVX NSCLC
[30] = test system: HCC-2998 colon
[31] = test system: DU-145 prostate
[32] = test system: RPMI-8226 leukemia
[33] = test system: HOP-92 NSCLC
[34] = test system: A549 NSCLC
[35] = test system: SK-MEL-28 melanoma
[36] = test system: NCI-H460 lung
[37] = test system: HS 578T breast
[38] = test system: OVCAR-5 ovarian
[39] = test system: MALME-3M melanoma
[40] = test system: UACC-62 melanoma
[41] = test system: ACHN renal
[42] = test system: 786-0 renal
[43] = test system: SNB-19 CNS
[44] = test system: UACC-257 melanoma
[45] = test system: MOLT-4 leukemia
[46] = test system: OVCAR-4 ovarian
[47] = test system: IGROV1 ovarian
[48] = test system: A498 renal
[49] = test system: HT29 colon
[50] = test system: SF-539 CNS
[51] = test system: OVCAR-8 ovarian
[52] = test system: PC-3 prostate
[53] = test system: COLO 205 colon
[54] = test system: RXF 393 renal
[55] = test system: HCT-116 colon
[56] = test system: HOP-62 NSCLC
[57] = test system: SNB-75 CNS

N#CC(C#N)=C/C=C(\Cl)c1ccc(Cl)cc1
GI50 [1]: 3.31 µM
TGI [1]: 37.3 µM
GI50 [2]: 6.9 µM
TGI [2]: > 43.7 µM
GI50 [3]: 17.7 µM
TGI [3]: > 100 µM
GI50 [4]: 7.69 µM
TGI [4]: 33.9 µM
GI50 [5]: 9.73 µM
TGI [5]: 36.4 µM
GI50 [6]: 4.66 µM
TGI [6]: 19.2 µM
GI50 [7]: 8.32 µM
TGI [7]: 22 µM
GI50 [8]: 14.1 µM
TGI [8]: 50.5 µM
GI50 [9]: 0.425 µM
TGI [9]: > 100 µM
GI50 [10]: 9.96 µM
TGI [10]: > 52.7 µM
GI50 [11]: 15 µM
TGI [11]: 44.1 µM
GI50 [12]: 14.4 µM
TGI [12]: 44.9 µM
GI50 [13]: 13.8 µM
TGI [13]: 49.1 µM
GI50 [14]: 5.81 µM
TGI [14]: > 49.6 µM
GI50 [15]: 1.93 µM
TGI [15]: 9.9 µM
GI50 [16]: 6.5 µM
TGI [16]: 17.4 µM
GI50 [17]: 1.18 µM
GI50 [18]: 4.52 µM
TGI [18]: 26.7 µM
GI50 [19]: 14 µM
TGI [19]: > 100 µM
GI50 [20]: 3.78 µM
TGI [20]: 12.6 µM
GI50 [21]: 3.13 µM
TGI [21]: 11.5 µM
GI50 [22]: 4.5 µM
TGI [22]: > 42.2 µM
GI50 [23]: 1.93 µM
TGI [23]: 7.38 µM
GI50 [24]: 0.7 µM
GI50 [25]: 2.54 µM
TGI [25]: 14 µM
GI50 [26]: 4.57 µM
TGI [26]: 16.2 µM
GI50 [27]: 2.66 µM
TGI [27]: 9.04 µM
GI50 [28]: 2.73 µM
TGI [28]: 10 µM
GI50 [29]: 23.8 µM
TGI [29]: 55.4 µM
GI50 [30]: 6.75 µM
TGI [30]: 19.9 µM
GI50 [31]: 11.6 µM
TGI [31]: 29.7 µM
GI50 [32]: 4.12 µM
TGI [32]: > 100 µM
GI50 [33]: 3.81 µM
TGI [33]: 11.4 µM
GI50 [34]: 17.4 µM
TGI [34]: 39.3 µM
GI50 [35]: 2.38 µM
TGI [35]: 45 µM
GI50 [36]: 25.1 µM
TGI [36]: > 100 µM
GI50 [37]: 7.47 µM
TGI [37]: 26.3 µM
GI50 [38]: 8.78 µM
TGI [38]: 24.5 µM
GI50 [39]: 2.16 µM
TGI [39]: 7.63 µM
GI50 [40]: 6.13 µM
TGI [40]: 22.8 µM
GI50 [41]: 9.96 µM
TGI [41]: 37.2 µM
GI50 [42]: 4.56 µM
TGI [42]: 15.7 µM
GI50 [43]: 18.5 µM
TGI [43]: > 55.2 µM
GI50 [44]: 14.8 µM
TGI [44]: 30.2 µM
GI50 [45]: 0.696 µM
TGI [45]: > 100 µM
GI50 [46]: 5.12 µM
TGI [46]: 55.6 µM
GI50 [47]: 7.46 µM
TGI [47]: 32 µM
GI50 [48]: 20.5 µM
TGI [48]: 38.6 µM
GI50 [49]: 0.98 µM
GI50 [50]: 4.66 µM
TGI [50]: 15.9 µM
GI50 [51]: 10.1 µM
TGI [51]: 31.4 µM
GI50 [52]: 8.62 µM
TGI [52]: > 46.2 µM
GI50 [53]: 7.72 µM
TGI [53]: > 52.1 µM
GI50 [54]: 7.63 µM
TGI [54]: 34.9 µM
GI50 [55]: 1.58 µM
TGI [55]: 3.76 µM
GI50 [56]: 14.3 µM
TGI [56]: 31.3 µM

O=C1OCC2=C1C(c1cccc(F)c1)c1cc3c(cc1N2CCO)OCO3 (stereo unspecified)
GI50 [1]: 0.294 µM
TGI [1]: > 50 µM
GI50 [2]: 2.5 µM
TGI [2]: > 50 µM
GI50 [3]: 2.46 µM
TGI [3]: > 50 µM
GI50 [4]: > 50 µM
TGI [4]: > 50 µM
GI50 [5]: 1.2 µM
TGI [5]: > 50 µM
GI50 [6]: 15.6 µM
TGI [6]: > 50 µM
GI50 [7]: 1.46 µM
TGI [7]: > 50 µM
GI50 [8]: 3.2 µM
TGI [8]: > 50 µM
GI50 [9]: 2.37 µM
TGI [9]: > 50 µM
GI50 [10]: 1.73 µM
TGI [10]: > 50 µM
GI50 [11]: 1.48 µM
TGI [11]: > 50 µM
GI50 [12]: 2.88 µM
TGI [12]: > 50 µM
GI50 [13]: 2.18 µM
TGI [13]: > 50 µM
GI50 [14]: 0.259 µM
TGI [14]: 29 µM
GI50 [15]: 1.65 µM
TGI [15]: > 50 µM
GI50 [16]: 1.27 µM
TGI [16]: > 50 µM
GI50 [17]: 2.35 µM
TGI [17]: > 50 µM
GI50 [18]: 3.05 µM
TGI [18]: > 50 µM
GI50 [19]: 1.44 µM
TGI [19]: > 50 µM
GI50 [20]: 1.24 µM
TGI [20]: > 50 µM
GI50 [21]: 1.26 µM
TGI [21]: > 50 µM
GI50 [22]: 1.08 µM
TGI [22]: > 50 µM
GI50 [23]: 0.357 µM
TGI [23]: > 50 µM
GI50 [24]: 0.353 µM
TGI [24]: > 50 µM
GI50 [25]: 3.09 µM
TGI [25]: > 50 µM
GI50 [26]: 2.02 µM
TGI [26]: > 50 µM
GI50 [27]: 3.96 µM
TGI [27]: > 50 µM
GI50 [28]: 0.187 µM
TGI [28]: 1.57 µM
GI50 [29]: 3.03 µM
TGI [29]: > 50 µM
GI50 [30]: 7.06 µM
TGI [30]: > 50 µM
GI50 [31]: 2.71 µM
TGI [31]: > 50 µM
GI50 [32]: 2.28 µM
TGI [32]: > 50 µM
GI50 [33]: 3.1 µM
TGI [33]: > 50 µM
GI50 [34]: 8.74 µM
TGI [34]: > 50 µM
GI50 [35]: 20.3 µM
TGI [35]: > 50 µM
GI50 [36]: 2.08 µM
TGI [36]: > 50 µM
GI50 [57]: 0.82 µM
TGI [57]: 2.8 µM
GI50 [37]: 1.42 µM
TGI [37]: > 50 µM
GI50 [38]: 4.33 µM
TGI [38]: > 50 µM
GI50 [40]: 2.25 µM
TGI [40]: > 50 µM
GI50 [41]: 3.03 µM
TGI [41]: > 50 µM
GI50 [42]: 1.86 µM
TGI [42]: > 50 µM
GI50 [43]: 3 µM
TGI [43]: > 50 µM
GI50 [44]: > 50 µM
TGI [44]: > 50 µM
GI50 [45]: 3.02 µM
TGI [45]: > 50 µM
GI50 [46]: 46.8 µM
TGI [46]: > 50 µM
GI50 [47]: 4.19 µM
TGI [47]: > 50 µM
GI50 [48]: 1.11 µM
TGI [48]: 4.87 µM
GI50 [49]: 1.52 µM
TGI [49]: > 50 µM
GI50 [50]: 1.13 µM
TGI [50]: 3.61 µM
GI50 [51]: 3.18 µM
TGI [51]: > 50 µM
GI50 [52]: 1.46 µM
TGI [52]: > 50 µM
GI50 [53]: 1.48 µM
TGI [53]: 15.1 µM
GI50 [54]: 1.51 µM
TGI [54]: 4.96 µM
GI50 [55]: 1.53 µM
TGI [55]: > 50 µM
GI50 [56]: 2.19 µM
TGI [56]: > 50 µM
